# Results reported in patent publication US20130302422A1, “PHARMACEUTICAL COMPOSITION FOR TREATMENT AND PREVENTION OF KIDNEY DISEASES” (KT & G CORPORATION, priority 2007, published 2013).
# Tests used:
# [1] = system: acute renal failure-induced animals; assay: Acute renal failure induced by ischaemia/reperfusion injury in rats (Experimental Example 1); type: in vivo, Sprague-Dawley rats
# From the text: Creatine is non-enzymatically converted into creatinine that is a waste product of muscle energy metabolism. Creatinine is a waste by-product and is therefore filtered by the kidney, but not reabsorbed. Since the muscle mass is generally maintained at a constant level and is less susceptible to other organs except for the kidney, a serum creatinine level is a good marker of the glomerular filtration rate. A higher creatinine concentration reflects more significant impairment of renal function. For example, a two-fold increase of the creatinine level represents a 50% decrease of the glomerular filtration rate.
# Accumulation of toxic ammonia in the body is prevented in a manner that ammonia is produced by deamination of amino acids during a protein metabolic process and is then converted into urea in the liver. When excretory function of the kidney is compromised, the blood urea nitrogen level is elevated. Therefore, measurement of BUN is an important indicator to examine whether the kidney is normally functional or not. When the BUN level is elevated over a normal value, the subject is suspected to have acute nephritis, chronic nephritis, prostate hyperplasia or the like. When the BUN level is dropped below a normal value, the subject is suspected to have diabetes insipidus, muscular dystrophy or the like.
# Among compounds of Formula 1, effects of 7,8-dihydro-2,2-dimethyl-2H-naphtho(2,3-b)dihydropyran-7,8-dione (hereinafter, referred to as “compound of Example 1”) on acute renal failure were examined. For this purpose, 6-week-old male Sprague-Dawley rats, weighing 200 to 220 g (Japan SLC, Inc., Japan) were divided into two groups as given in Table 1 below: a vehicle-treated control group and a group received the compound of Example 1 (200 mg/kg). Animals were given test samples by the oral route. […]
# Following the IR induction, 0.2 mL of serum was sampled from each animal on +1 day, +3 day and +5 day, respectively. Creatinine and BUN (blood urea nitrogen) levels were measured with an automatic biochemical analyzer (HITACHI, 7020).
# [2] = system: diabetic nephropathy-induced animals; assay: Diabetic nephropathy model in ZDF rats (Experimental Example 2); type: in vivo, Zucker diabetic fatty (ZDF) rats; conditions: 250 mg/kg oral
# From the text: When the blood glucose level is elevated, glucose in the blood partially binds to hemoglobin in red blood cells, producing glycosylated hemoglobin (termed HbAlc). When glycosylated hemoglobin is formed, the corresponding red blood cells will retain HbAlc until the red blood cells complete their lives to be destroyed. […] The HbAlc reflect a blood glucose value over a relatively long period of time, so the measurement of the HbAlc level may be a useful indicator of how well diabetes has been therapeutically controlled over the past several months.
# An increase in the rate of excretion of albumin in the urine is the most preceding clinical finding in diabetic nephropathy. Therefore, an increased level of urine albumin is an indicator of renal or hepatic diseases.
# 8-week-old male Zucker diabetic fatty (ZDF) rats (Charles River Laboratory) were divided into four groups as given in Table 2 below: Vehicle, MB660 (250 mg/kg), Pair-fed, and Rosi (6 mg/kg). Animals were orally given test samples.
# Diabetic nephropathy model animals were fed with a low-fat feed (11.9 kcal % fat, 5053, Labdiet). Animals with a blood glucose level of 300 mg/dl and a body weight (BW) of more than 300 g were selected and treated with test samples for 4 and 8 weeks, respectively (total 12 and 16 weeks old). In-vivo changes in glycosylated hemoglobin (HbAlc), urine albumin and urine protein (1,000× urine albumin/urine creatinine) associated with kidney diseases were observed. Albumin was measured using an immunoturbidimetric assay, and creatinine was measured using a Jaffe rate method.
compound,measurement,setting,value
"CC1(C)CCC2=C(O1)c1ccccc1C(=O)C2=O [Example 1, 7,8-dihydro-2,2-dimethyl-2H-naphtho(2,3-b)dihydropyran-7,8-dione]",serum creatinine level,"[1]; 200 mg/kg oral for two weeks before IR induction, serum on +1, +3, +5 day, vs control group, most prominent after 3 days of reperfusion (FIG. 1)",significantly decreased
same,serum BUN (blood urea nitrogen) level,"[1]; 200 mg/kg oral for two weeks before IR induction, serum on +1, +3, +5 day, vs control group, most remarkable after 3 days of reperfusion (FIG. 2)",significant reduction
same,glomerular filtration rate,"[1]; 200 mg/kg oral, inferred from serum creatinine and BUN results",elevation
same,glycosylated hemoglobin (HbAlc),[2]; treated 4 and 8 weeks (FIG. 3),significantly low
same,urine albumin level,"[2]; treated 4 and 8 weeks, compared with Rosiglitazone 6 mg/kg group (FIG. 5)",lower
same,daily urine protein level (1000× urine albumin/urine creatinine),"[2]; treated 4 and 8 weeks, compared with Rosiglitazone 6 mg/kg group (FIG. 6)",lower
same,left kidney weight,"[2]; treated 4 and 8 weeks, vs diabetic nephropathy-induced control group (FIG. 4)",significant decrease
